Reference: the NIST ThermoML archive (doi:10.1021/je800940j)

Experiments:
[1] = xn = mol fraction of the nth substance listed; details: Liquid; for viscosity: Concentric cylinders viscometry
[2] = 101 kPa, Liquid

Cc1ccccc1 [toluene] + C1CCCCC1
[1], 101 kPa, x2 = 0
Details	mass density [kg/m3]	viscosity [mPa·s]
283.15 K	876.1	0.6657
293.15 K	866.75	0.5958
303.15 K	857.48	0.5368
313.15 K	848.08	0.4859
323.15 K	838.7	0.4408

Cc1ccccc1 [toluene]
[2]
Details	mass density [kg/m3]
283.15 K	876.1
293.15 K	866.75
303.15 K	857.48
313.15 K	848.08
323.15 K	838.7

[2], Automatic viscometer
Details	viscosity [mPa·s]
283.15 K	0.6657
293.15 K	0.5958
303.15 K	0.5368
313.15 K	0.4859
323.15 K	0.4408

C1CC[C@H]2CCCC[C@H]2C1 [cis-decahydronaphthalene] + C1CC[C@H]2CCCC[C@@H]2C1
[1], 101.3 kPa, x1 = 0.4106
Details	mass density [kg/m3]	viscosity [mPa·s]
283.15 K	887.8	3.097
293.15 K	880.25	2.504
303.15 K	872.7	2.066
313.15 K	865.15	1.734
323.15 K	857.65	1.477

C1CCCCC1 [cyclohexane]
[2]
Details	mass density [kg/m3]
283.15 K	787.95
293.15 K	778.7
303.15 K	769.2
313.15 K	759.65
323.15 K	749.9

[2], Concentric cylinders viscometry
Details	viscosity [mPa·s]
283.15 K	1.18
293.15 K	0.9847
303.15 K	0.8295
313.15 K	0.7061
323.15 K	0.5978
